Source: ChEMBL document CHEMBL4359908, “Structure-activity relationship with pyrazoline-based aromatic sulfamates as carbonic anhydrase isoforms I, II, IX and XII inhibitors: Synthesis and biological evaluation” (Eur J Med Chem, 2019)

Experiments:
Carbonic anhydrase 12 [1] = biological target: T1, Carbonic anhydrase 12 (Homo sapiens, UniProt O43570); assay: Inhibition of human carbonic anhydrase 12 assessed as inhibitory constant incubated for 15 mins by phenol red dye based stopped flow assay
Carbonic anhydrase 2 = Carbonic anhydrase 2 (Homo sapiens, UniProt P00918); assay: Inhibition of human carbonic anhydrase 2 assessed as inhibitory constant incubated for 15 mins by phenol red dye based stopped flow assay
Carbonic anhydrase 1 = Carbonic anhydrase 1 (Homo sapiens, UniProt P00915); assay: Inhibition of human carbonic anhydrase 1 assessed as inhibitory constant incubated for 15 mins by phenol red dye based stopped flow assay
Carbonic anhydrase 9 [2] = biological target: T2, Carbonic anhydrase 9 (Homo sapiens, UniProt Q16790); assay: Inhibition of human carbonic anhydrase 9 assessed as inhibitory constant incubated for 15 mins by phenol red dye based stopped flow assay
Carbonic anhydrase 9 [3] = biological target: T2, Carbonic anhydrase 9; settings: at 0.001 µM
Description: Inhibition of human carbonic anhydrase 9 assessed as reduction in CO2 hydration at 10^-9 M incubated for 15 mins by phenol red dye based stopped flow assay relative to control (Rvb = 0 %)

Carbonic anhydrase 12 [4] = biological target: T1, Carbonic anhydrase 12; settings: at 1 µM
Description: Inhibition of human carbonic anhydrase 12 assessed as reduction in CO2 hydration at 10^-6 M incubated for 15 mins by phenol red dye based stopped flow assay relative to control (Rvb = 0 %)

Carbonic anhydrase 12 [5] = biological target: T1, Carbonic anhydrase 12; settings: at 0.01 µM
Carbonic anhydrase 9 [6] = biological target: T2, Carbonic anhydrase 9; settings: at 0.1 µM
Description: Inhibition of human carbonic anhydrase 9 assessed as reduction in CO2 hydration at 10^-7 M incubated for 15 mins by phenol red dye based stopped flow assay relative to control (Rvb = 0 %)

Carbonic anhydrase 12 [7] = biological target: T1, Carbonic anhydrase 12; settings: at 0.001 µM
Carbonic anhydrase 12 [8] = biological target: T1, Carbonic anhydrase 12; settings: at 0.1 µM
Description: Inhibition of human carbonic anhydrase 12 assessed as reduction in CO2 hydration at 10^-7 M incubated for 15 mins by phenol red dye based stopped flow assay relative to control (Rvb = 0 %)

Carbonic anhydrase 9 [9] = biological target: T2, Carbonic anhydrase 9; settings: at 1 µM
Description: Inhibition of human carbonic anhydrase 9 assessed as reduction in CO2 hydration at 10^-6 M incubated for 15 mins by phenol red dye based stopped flow assay relative to control (Rvb = 0 %)

Carbonic anhydrase 9 [10] = biological target: T2, Carbonic anhydrase 9; settings: at 0.01 µM
Description: Inhibition of human carbonic anhydrase 9 assessed as reduction in CO2 hydration at 10^-8 M incubated for 15 mins by phenol red dye based stopped flow assay relative to control (Rvb = 0 %)

Carbonic anhydrase 1, sequence (P00915 whole entry): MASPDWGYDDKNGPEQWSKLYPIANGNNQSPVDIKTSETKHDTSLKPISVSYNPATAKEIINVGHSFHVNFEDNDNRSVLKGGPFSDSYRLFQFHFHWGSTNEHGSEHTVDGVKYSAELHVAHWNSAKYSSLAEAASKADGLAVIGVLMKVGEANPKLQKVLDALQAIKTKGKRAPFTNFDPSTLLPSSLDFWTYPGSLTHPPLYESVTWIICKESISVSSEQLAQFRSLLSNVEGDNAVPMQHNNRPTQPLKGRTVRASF
T1 sequence (O43570 whole entry): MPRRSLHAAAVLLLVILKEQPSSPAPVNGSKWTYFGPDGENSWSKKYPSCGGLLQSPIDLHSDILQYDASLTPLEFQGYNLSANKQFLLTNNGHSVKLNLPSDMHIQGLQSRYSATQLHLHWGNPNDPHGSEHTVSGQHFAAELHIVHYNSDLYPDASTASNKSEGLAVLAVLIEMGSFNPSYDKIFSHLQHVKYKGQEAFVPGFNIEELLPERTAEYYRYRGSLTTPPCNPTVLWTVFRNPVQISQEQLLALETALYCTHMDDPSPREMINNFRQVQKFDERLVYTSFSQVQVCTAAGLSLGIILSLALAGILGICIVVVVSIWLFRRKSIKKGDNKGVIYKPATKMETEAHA

Row | Structure (SMILES) | Ki (Carbonic anhydrase 12 [1]) [nM] | Ki (Carbonic anhydrase 2) [nM] | Ki (Carbonic anhydrase 1) [nM] | Ki (Carbonic anhydrase 9 [2]) [nM] | other results
1 | COc1ccc(C2=NN(C(C)=O)C(c3ccc(OS(N)(=O)=O)cc3)C2)cc1 (configuration not stated) | 9.5 | 0.42 | 2980 | 22.8 | 
2 | CC(=O)N1N=C(c2ccc(OS(N)(=O)=O)cc2)CC1c1cc(Cl)ccc1Cl (configuration not stated) |  | 12.4 | 4750 | 25.5 | 
3 | CC(=O)N1N=C(c2ccc(OS(N)(=O)=O)cc2)CC1c1c(Cl)cccc1Cl (configuration not stated) | 43.7 | 13.2 | 4080 | 33.4 | 
4 | CC(=O)N1N=C(c2ccc([N+](=O)[O-])cc2)CC1c1ccc(OS(N)(=O)=O)cc1 (configuration not stated) | 0.88 | 9.5 | 3820 | 15 | 
5 | CC(=O)N1N=C(c2cccc(OS(N)(=O)=O)c2)CC1c1ccc(Cl)cc1Cl (configuration not stated) | 33.8 | 195 | 1410 | 13.8 | 
6 | CC(=O)N1N=C(c2ccc(Cl)cc2)CC1c1cccc(OS(N)(=O)=O)c1 (configuration not stated) | 22.3 | 32.7 | 2140 | 0.81 | 
7 | CC(=O)N1N=C(c2cccc(OS(N)(=O)=O)c2)CC1c1ccccc1Cl (configuration not stated) | 74.4 | 90.1 | 940 | 43.6 | 
8 | CC(=O)N1N=C(c2ccc(Cl)cc2Cl)CC1c1cccc(OS(N)(=O)=O)c1 (configuration not stated) | 30.8 | 12 | 6940 | 48.7 | 
9 | CC(=O)N1N=C(c2ccc(C)cc2)CC1c1cccc(OS(N)(=O)=O)c1 (configuration not stated) | 49.8 | 25.4 | 1540 | 8.9 | 
10 | CC(=O)N1N=C(c2ccc(F)cc2)CC1c1cccc(OS(N)(=O)=O)c1 (configuration not stated) |  | 6.5 | 5230 | 15.8 | 
11 | COc1ccc(C2CC(c3ccc(OS(N)(=O)=O)cc3)=NN2C(C)=O)cc1 (configuration not stated) | 42.6 | 5.3 | 1610 | 25 | 
12 | CC(=O)N1N=C(c2cccc(OS(N)(=O)=O)c2)CC1c1cccc2ccccc12 (configuration not stated) | 463 | 216 | 2240 | 51.1 | 
13 | CC(=O)N1N=C(c2cccc(OS(N)(=O)=O)c2)CC1c1ccc(F)cc1 (configuration not stated) | 13.5 | 38 | 67.4 | 8.4 | 
14 | CC(=O)N1N=C(c2ccc(OS(N)(=O)=O)cc2)CC1c1ccccc1Cl (configuration not stated) |  | 9 | 8250 | 25.9 | 
15 | CC(=O)N1N=C(c2cccc(OS(N)(=O)=O)c2)CC1c1cc(Cl)ccc1Cl (configuration not stated) | 34.2 | 92.6 | 2040 | 58.9 | 
16 | CC(=O)N1N=C(c2ccc(OS(N)(=O)=O)cc2)CC1c1cccc2ccccc12 (configuration not stated) | 56.4 | 27.5 | 3300 | 49 | 
17 | CC(=O)N1N=C(c2ccc(OS(N)(=O)=O)cc2)CC1c1ccc(Cl)cc1 (configuration not stated) | 27.3 | 6 | 1140 | 6.9 | 
18 | CC(=O)N1N=C(c2cccc(OS(N)(=O)=O)c2)CC1c1c(Cl)cccc1Cl (configuration not stated) | 61.3 | 223 | 1780 | 63.6 | 
19 | CC(=O)N1N=C(c2ccccc2)CC1c1cccc(OS(N)(=O)=O)c1 (configuration not stated) | 22.9 | 16.5 | 755 | 13.1 | 
20 | CC(=O)N1N=C(c2ccc(Cl)c(Cl)c2)CC1c1cccc(OS(N)(=O)=O)c1 (configuration not stated) | 85.2 | 54.8 | 8170 | 15.5 | 

Row | Structure (SMILES) | Ki (Carbonic anhydrase 12 [1]) [nM] | Ki (Carbonic anhydrase 2) [nM] | Ki (Carbonic anhydrase 1) [nM] | Ki (Carbonic anhydrase 9 [2]) [nM] | other results
21 | CC(=O)N1N=C(c2ccc(OS(N)(=O)=O)cc2)CC1c1ccc(Cl)cc1Cl (configuration not stated) | 26.2 | 9.3 | 3750 | 11.2 | 
22 | CC(=O)N1N=C(c2cccc(OS(N)(=O)=O)c2)CC1c1ccc(Cl)cc1 (configuration not stated) | 9.3 | 14.7 | 438 | 6.9 | 
23 | CC(=O)N1N=C(c2ccc(Cl)cc2Cl)CC1c1ccc(OS(N)(=O)=O)cc1 (configuration not stated) | 42 | 5.3 | 3520 | 49.9 | 
24 | COc1ccc(C2CC(c3cccc(OS(N)(=O)=O)c3)=NN2C(C)=O)cc1 (configuration not stated) | 48.6 | 52.4 | 172 | 8.7 | 
25 | CC(=O)N1N=C(c2ccc([N+](=O)[O-])cc2)CC1c1cccc(OS(N)(=O)=O)c1 (configuration not stated) | 20.5 | 22.9 | 2550 | 9.4 | 
26 | CC(=O)N1N=C(c2cccc(OS(N)(=O)=O)c2)CC1c1ccc(C)cc1 (configuration not stated) | 55.9 | 71.2 | 558 | 29.4 | 
27 | CC(=O)N1N=C(c2ccc(Cl)c(Cl)c2)CC1c1ccc(OS(N)(=O)=O)cc1 (configuration not stated) | 12.9 | 27.6 | 2900 | 7.7 | 
28 | CC(=O)N1N=C(c2ccc(C)cc2)CC1c1ccc(OS(N)(=O)=O)cc1 (configuration not stated) | 7.7 | 9.9 | 2340 | 22.4 | 
29 | CC(=O)N1N=C(c2cccc(OS(N)(=O)=O)c2)CC1c1ccccc1 (configuration not stated) | 55.1 | 39.4 | 188 | 29.9 | 
30 | CC(=O)N1N=C(c2cccc(OS(N)(=O)=O)c2)CC1c1ccc([N+](=O)[O-])cc1 (configuration not stated) | 20.8 | 134 | 1460 | 10.1 | 
31 | CC(=O)N1N=C(c2ccc(OS(N)(=O)=O)cc2)CC1c1ccc([N+](=O)[O-])cc1 (configuration not stated) |  | 1.2 | 3210 | 74.3 | 
32 | CC(=O)N1N=C(c2ccc(OS(N)(=O)=O)cc2)CC1c1cccc(Cl)c1 (configuration not stated) | 9.8 | 0.87 | 2310 | 0.72 | 
33 | CC(=O)N1N=C(c2ccc(OS(N)(=O)=O)cc2)CC1c1ccccc1 (configuration not stated) |  | 8.9 | 1310 | 34.1 | 
34 | CC(=O)N1N=C(c2ccc(OS(N)(=O)=O)cc2)CC1c1ccc(C)cc1 (configuration not stated) | 22.3 | 6.5 | 817 | 7.1 | 
35 | CC(=O)N1N=C(c2ccc(Cl)cc2)CC1c1ccc(OS(N)(=O)=O)cc1 (configuration not stated) | 29.5 | 19.5 | 970 | 8.3 | 
36 | CC(=O)N1N=C(c2ccc(OS(N)(=O)=O)cc2)CC1c1ccc(F)cc1 (configuration not stated) | 11.8 | 1.5 | 666 | 5.9 | 
37 | CC(=O)N1N=C(c2cccc(OS(N)(=O)=O)c2)CC1c1ccc(C(F)(F)F)cc1 (configuration not stated) | 8.9 | 22.2 | 952 | 3.7 | 
38 | CC(=O)N1N=C(c2ccc(OS(N)(=O)=O)cc2)CC1c1ccc(C(F)(F)F)cc1 (configuration not stated) |  | 0.83 | 2740 | 29.3 | 
39 | CC(=O)N1N=C(c2ccccc2)CC1c1ccc(OS(N)(=O)=O)cc1 (configuration not stated) | 10.6 | 44.8 | 645 | 45.1 | inhibition (Carbonic anhydrase 9 [3]): 16%; inhibition (Carbonic anhydrase 12 [4]): 89%; inhibition (Carbonic anhydrase 12 [5]): 49%; inhibition (Carbonic anhydrase 9 [6]): 69%; inhibition (Carbonic anhydrase 12 [7]): 15%; inhibition (Carbonic anhydrase 12 [8]): 77%; inhibition (Carbonic anhydrase 9 [9]): 81%; inhibition (Carbonic anhydrase 9 [10]): 42%
40 | CC(=O)N1N=C(c2cccc(OS(N)(=O)=O)c2)CC1c1cccc(Cl)c1 (configuration not stated) | 44.6 | 56.9 | 805 | 7.3 | 
